19 compounds from patent US9771369B2, “Compounds and methods for kinase modulation, and indications therefor” (Plexxikon Inc., priority 2014, dated 2017) can be followed below.

Usually IC50 stands for the point on the concentration scale where inhibition reaches its midpoint. Read a high IC50 as a need for much substance.

Experiment [1] addresses c-Kit kinase (Homo sapiens (Human), UniProt P10721). Description: c-Kit biochemical assay (AlphaScreen kinase activity). The procedure, abridged:
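AlphaScreen: c-Kit phosphorylates biotin-(E4Y)3 (100 nM) at 10 μM ATP, pH 7.2 HEPES buffer with Mg/Mn, 5% DMSO, 1 h room temperature; streptavidin donor and PY30 acceptor beads detect product. Second format: 100 μM ATP, 30 nM biotin-(E4Y)10, pH 7.5. IC50 from 8-point 1:3 dilution curves.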
On the technique in general: Bead proximity is the source of the signal in Alpha formats.

The test system of experiment [2] is BaF3-FL KIT D816V or BaF3-FL KIT V560G/D816V cell line. The experiment is described as follows: Cell-based assays of c-Kit mutant kinase activity (cell proliferation, ATPlite). To be noted: at least one of the c-kit cell assays of Example 7. The procedure, abridged:
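BaF3 cells dependent on transfected full-length human KIT D816V or V560G/D816V (pCI-Neo, CMV promoter) were seeded at 1×10^4 cells/well and exposed to 8-point 1:3 dilutions from 10 μM top (0.2% DMSO) for three days at 37° C. ATPlite luminescence gave cell number; IC50 from concentration-response.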

c-Kit kinase, sequence (P10721 26-976): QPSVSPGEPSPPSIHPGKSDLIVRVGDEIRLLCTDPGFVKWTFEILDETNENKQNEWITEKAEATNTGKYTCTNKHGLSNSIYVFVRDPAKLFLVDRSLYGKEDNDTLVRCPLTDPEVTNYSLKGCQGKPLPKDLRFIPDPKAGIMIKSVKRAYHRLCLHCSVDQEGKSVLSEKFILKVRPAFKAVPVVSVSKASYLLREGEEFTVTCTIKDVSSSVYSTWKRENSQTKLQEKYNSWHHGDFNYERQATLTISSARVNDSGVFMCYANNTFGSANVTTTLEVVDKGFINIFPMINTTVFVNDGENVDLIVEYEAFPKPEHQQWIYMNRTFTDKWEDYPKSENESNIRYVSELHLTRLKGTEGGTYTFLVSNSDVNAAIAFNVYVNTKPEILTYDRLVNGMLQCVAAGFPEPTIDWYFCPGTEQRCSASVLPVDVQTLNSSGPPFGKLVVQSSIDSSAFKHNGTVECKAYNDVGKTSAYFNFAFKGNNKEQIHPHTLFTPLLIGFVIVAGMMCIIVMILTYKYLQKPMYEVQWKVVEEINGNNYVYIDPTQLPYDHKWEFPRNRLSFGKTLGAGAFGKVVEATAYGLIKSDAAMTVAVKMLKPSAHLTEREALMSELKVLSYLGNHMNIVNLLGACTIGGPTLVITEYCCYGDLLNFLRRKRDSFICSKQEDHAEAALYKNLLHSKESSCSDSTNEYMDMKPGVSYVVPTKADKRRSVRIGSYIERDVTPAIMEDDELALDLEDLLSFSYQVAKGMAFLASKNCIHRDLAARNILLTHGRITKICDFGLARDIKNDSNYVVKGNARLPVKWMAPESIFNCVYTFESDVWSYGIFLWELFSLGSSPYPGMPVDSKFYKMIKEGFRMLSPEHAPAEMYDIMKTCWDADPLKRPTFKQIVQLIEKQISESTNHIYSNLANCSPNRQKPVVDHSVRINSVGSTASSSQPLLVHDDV

With `CCC1(c2nc(C)c(-c3ccc(OC)c(C)c3)[nH]2)CCN(c2ncnc3[nH]c(C)cc23)CC1` [P-3141, 4-[4-ethyl-4-[5-(4-methoxy-3-methyl-phenyl)-4-methyl-1H-imidazol-2-yl]-1-piperidyl]-6-methyl-7H-pyrrolo[2,3-d]pyrimidine], the figures for the half-inhibitory concentration (IC50) in experiment [1] and in experiment [2] were 1 to 10 µM and less than 10 µM, respectively.
For `CCOc1ccc(-c2[nH]c(C3(CC)CCN(c4ncnc5[nH]c(C)cc45)CC3)nc2C)cc1C` [P-3142, 4-[4-[5-(4-ethoxy-3-methyl-phenyl)-4-methyl-1H-imidazol-2-yl]-4-ethyl-1-piperidyl]-6-methyl-7H-pyrrolo[2,3-d]pyrimidine] the same measures were 1 to 10 µM and less than 10 µM.
With `CCC1(c2nc(C)c(-c3ccc4c(c3)OCO4)[nH]2)CCN(c2ncnc3[nH]c(C)cc23)CC1` [P-3143, 4-[4-[5-(1,3-benzodioxol-5-yl)-4-methyl-1H-imidazol-2-yl]-4-ethyl-1-piperidyl]-6-methyl-7H-pyrrolo[2,3-d]pyrimidine], the IC50 in experiment [1] is 1 to 10 µM; in experiment [2], less than 10 µM.
In the same order, the values of `CCC1(c2nc(C)c(-c3ccc4c(c3)OCCO4)[nH]2)CCN(c2ncnc3[nH]c(C)cc23)CC1` [P-3144, 4-[4-[5-(2,3-dihydro-1,4-benzodioxin-6-yl)-4-methyl-1H-imidazol-2-yl]-4-ethyl-1-piperidyl]-6-methyl-7H-pyrrolo[2,3-d]pyrimidine] are 1 to 10 µM and less than 10 µM.
Consider `CCOc1ccc(-c2[nH]c(C3(CC)CCN(c4ncnc5[nH]c(C)cc45)CC3)nc2C)cc1` [P-3145, 4-[4-[5-(4-ethoxyphenyl)-4-methyl-1H-imidazol-2-yl]-4-ethyl-1-piperidyl]-6-methyl-7H-pyrrolo[2,3-d]pyrimidine], for which the half-inhibitory concentration (IC50) in experiment [1] is 1 to 10 µM; in experiment [2] it was less than 10 µM.
Take `COc1ccc(-c2[nH]c(C3CCN(c4ncnc5[nH]c(-c6ccnc(OC)c6)cc45)CC3)nc2C(F)(F)F)cc1` [P-3146, 4-[4-[5-(4-methoxyphenyl)-4-(trifluoromethyl)-1H-imidazol-2-yl]-1-piperidyl]-6-(2-methoxy-4-pyridyl)-7H-pyrrolo[2,3-d]pyrimidine]: the IC50 in experiment [1] is 0.0001 to 1 µM; in experiment [2], less than 10 µM.
For `COc1ccc(-c2[nH]c(C3CCN(c4ncnc5[nH]c(-c6ccc(C#N)cc6)cc45)CC3)nc2C(F)(F)F)cc1` [P-3148, 4-[4-[4-[5-(4-methoxyphenyl)-4-(trifluoromethyl)-1H-imidazol-2-yl]-1-piperidyl]-7H-pyrrolo[2,3-d]pyrimidin-6-yl]benzonitrile] the same measures were 0.0001 to 1 µM and less than 10 µM.
Regarding `COc1cc(-c2cc3c(N4CCC(c5nc(C)c(-c6ccc(C(F)(F)F)cc6)[nH]5)CC4)ncnc3[nH]2)ccn1` [P-3149, 6-(2-methoxy-4-pyridyl)-4-[4-[4-methyl-5-[4-(trifluoromethyl)phenyl]-1H-imidazol-2-yl]-1-piperidyl]-7H-pyrrolo[2,3-d]pyrimidine], the 50% inhibitory concentration (IC50) in experiment [1] was 1 to 10 µM; in experiment [2], less than 10 µM.
On to `Cc1cc2c(N3CCC(C)(c4nc(C)c(-c5ccc6c(c5)OCO6)[nH]4)CC3)ncnc2[nH]1` [P-3150, 4-[4-[5-(1,3-benzodioxol-5-yl)-4-methyl-1H-imidazol-2-yl]-4-methyl-1-piperidyl]-6-methyl-7H-pyrrolo[2,3-d]pyrimidine], for which the half-maximal inhibitory concentration (IC50) was 1 to 10 µM in experiment [1] and less than 10 µM in experiment [2].
For `Cc1cc2c(N3CCC(C)(c4nc(C)c(-c5ccc6c(c5)OCCO6)[nH]4)CC3)ncnc2[nH]1` [P-3151, 4-[4-[5-(2,3-dihydro-1,4-benzodioxin-6-yl)-4-methyl-1H-imidazol-2-yl]-4-methyl-1-piperidyl]-6-methyl-7H-pyrrolo[2,3-d]pyrimidine] the same measures were 1 to 10 µM and less than 10 µM.
Take `Cc1cc2c(N3CCC(C)(c4nc(C)c(-c5ccc6c(c5)OC(F)(F)O6)[nH]4)CC3)ncnc2[nH]1` [P-3152, 4-[4-[5-(2,2-difluoro-1,3-benzodioxol-5-yl)-4-methyl-1H-imidazol-2-yl]-4-methyl-1-piperidyl]-6-methyl-7H-pyrrolo[2,3-d]pyrimidine]: the figures for the IC50 in experiment [1] and in experiment [2] were 1 to 10 µM and less than 10 µM, respectively.
For `COc1ccc(-c2[nH]c(C3(C)CCN(c4ncnc5[nH]c(-c6cnn(C(F)F)c6)cc45)CC3)nc2C)cc1` [P-3153, 6-[1-(difluoromethyl)pyrazol-4-yl]-4-[4-[5-(4-methoxyphenyl)-4-methyl-1H-imidazol-2-yl]-4-methyl-1-piperidyl]-7H-pyrrolo[2,3-d]pyrimidine], the figures for the IC50 in experiment [1] and in experiment [2] were 0.0001 to 1 µM and less than 10 µM, respectively.
`COc1ccc(-c2[nH]c(C3(C)CCN(c4ncnc5[nH]c(-c6cnn(C(F)F)c6)cc45)CC3)nc2C)cc1C` [P-3154, 6-[1-(difluoromethyl)pyrazol-4-yl]-4-[4-[5-(4-methoxy-3-methyl-phenyl)-4-methyl-1H-imidazol-2-yl]-4-methyl-1-piperidyl]-7H-pyrrolo[2,3-d]pyrimidine]: the IC50 in experiment [1] is 0.0001 to 1 µM; in experiment [2], less than 10 µM.
As for `Cc1nc(C2(C)CCN(c3ncnc4[nH]c(-c5cnn(C(F)F)c5)cc34)CC2)[nH]c1-c1ccc2c(c1)OCO2` [P-3155, 4-[4-[5-(1,3-benzodioxol-5-yl)-4-methyl-1H-imidazol-2-yl]-4-methyl-1-piperidyl]-6-[1-(difluoromethyl)pyrazol-4-yl]-7H-pyrrolo[2,3-d]pyrimidine], the IC50 is 0.0001 to 1 µM in experiment [1] and less than 10 µM in experiment [2].
`COc1ccc(-c2[nH]c(C3(C)CCN(c4ncnc5[nH]c(-c6ccc(OC)nc6)cc45)CC3)nc2C)cc1` [P-3156, 4-[4-[5-(4-methoxyphenyl)-4-methyl-1H-imidazol-2-yl]-4-methyl-1-piperidyl]-6-(6-methoxy-3-pyridyl)-7H-pyrrolo[2,3-d]pyrimidine]: the half-maximal inhibitory concentration (IC50) is 0.0001 to 1 µM in experiment [1] and less than 10 µM in experiment [2].
As to `COc1ccc(-c2cc3c(N4CCC(C)(c5nc(C)c(-c6ccc(OC)c(C)c6)[nH]5)CC4)ncnc3[nH]2)cn1` [P-3157, 4-[4-[5-(4-methoxy-3-methyl-phenyl)-4-methyl-1H-imidazol-2-yl]-4-methyl-1-piperidyl]-6-(6-methoxy-3-pyridyl)-7H-pyrrolo[2,3-d]pyrimidine], the values for the half-inhibitory concentration (IC50) in experiment [1] and in experiment [2] were 0.0001 to 1 µM and less than 10 µM, respectively.
For the compound `COc1ccc(-c2cc3c(N4CCC(C)(c5nc(C)c(-c6ccc7c(c6)OCO7)[nH]5)CC4)ncnc3[nH]2)cn1` [P-3158, 4-[4-[5-(1,3-benzodioxol-5-yl)-4-methyl-1H-imidazol-2-yl]-4-methyl-1-piperidyl]-6-(6-methoxy-3-pyridyl)-7H-pyrrolo[2,3-d]pyrimidine], the figures for the half-inhibitory concentration (IC50) in experiment [1] and in experiment [2] were 0.0001 to 1 µM and less than 10 µM, respectively.
For `Cc1nc(C2(C)CCN(c3ncnc4[nH]c(-c5ccc(C#N)cc5)cc34)CC2)[nH]c1-c1ccc2c(c1)OCO2` [P-3159, 4-[4-[4-[5-(1,3-benzodioxol-5-yl)-4-methyl-1H-imidazol-2-yl]-4-methyl-1-piperidyl]-7H-pyrrolo[2,3-d]pyrimidin-6-yl]benzonitrile], the IC50 is 0.0001 to 1 µM in experiment [1] and less than 10 µM in experiment [2].
In the same order, the values of `CCOc1ccc(-c2[nH]c(C3(C)CCN(c4ncnc5[nH]c(-c6ccc(C#N)cc6)cc45)CC3)nc2C)cc1C` [P-3160, 4-[4-[4-[5-(4-ethoxy-3-methyl-phenyl)-4-methyl-1H-imidazol-2-yl]-4-methyl-1-piperidyl]-7H-pyrrolo[2,3-d]pyrimidin-6-yl]benzonitrile] are 0.0001 to 1 µM and less than 10 µM.
